{"source": "patent US20230201166A1", "about": "“METHODS FOR TREATING CANCER BY INHIBITING CARM1” (DANA-FARBER CANCER INSTITUTE, INC., priority 2020, published 2023)", "key": {"[1]": {"test_system": "B16F10-OVA-ZsGreen tumor cells", "experiment": "T cell cytotoxicity assay, B16F10-OVA-ZsGreen tumor cells with OT-I CD8 T cells", "format": "cell-based, murine", "conditions": "pre-treatment 0.1 μM for 24 hours", "excerpt": "FIG. 3K illustrates that inactivation of Carm1 gene in tumor cells elicits tumor immunity, showing sensitization of tumor cells to T cells with a CARM1 inhibitor. […] Vehicle or inhibitor treated tumor cells were co-cultured with OT-I CD8 T cells at indicated E:T ratios (n=7-8 replicates/condition).\nA Celigo image cytometer (Nexcelom) was used to study the killing of fluorescent tumor cells by CD8 T cells. Carm1-KO or control-KO B16-OVA-ZsGreen cells were washed with PBS, and 5,000 tumor cells were added per well in flat-bottom 96-well plates (8-10 replicates/group). OT-I CD8 T cells were added at different effector to target ratios. Following 24 or 48 hours of co-culture, the media was removed, and wells were washed with PBS to remove dead tumor cells and CD8 T cells. Live, adherent tumor cells were then counted using the Celigo image cytometer. As an alternative approach, apoptotic tumor cells were counted based on Caspase 3/7 activation. A Caspase-3/7 reagent (Essen Bioscience) was added directly to the culture media (0.5 μM final concentration) after 12, 24 or 48 hours of co-culture of tumor cells with T cells, and positive tumor cells were counted using the image cytometer."}, "BT549 TNBC cells": {"test_system": "BT549 TNBC cells", "experiment": "T cell cytotoxicity assay, BT549 TNBC cells with NY-ESO-1 TCR human CD8 T cells", "format": "cell-based", "conditions": "pre-treatment 0.1 μM for 24 hours", "protocol": "FIG. 3L illustrates that inactivation of Carm1 gene in tumor cells elicits tumor immunity, showing T cell cytotoxicity assay with human BT549 TNBC and human CD8 T cells that expressed a NY-ESO-1 TCR. […] In FIGS. 3A-3L, two-way ANOVA was used to determine statistical significance for tumor measurements at time points when all mice were alive. Statistical significance for survival of mice in each treatment group were calculated by Log-rank (Mantel-Cox) test. Bar graphs represent data summarized as mean±S.E.M. and were analyzed by unpaired two-sided Mann-Whitney test. Data shown are representative of three experiments. *p<0.05, **p<0.01, ***p<0.001, ****p<0.0001, ns (non-significant).\nT cell cytotoxicity assay using human tumor cells was performed using NY-ESO-1 transduced human CD8 T cells and BT549 human triple negative breast cancer cells which were HLA-A02*01 positive and endogenously expressed the NY-ESO-1 antigen. BT549 cells were co-cultured with human CD8 T cells that expressed a NY-ESO-1 TCR at increasing effector to target (E:T) ratios for 12-72 hours. Cytotoxicity was quantified by flow cytometry. All in vitro cytotoxicity assays were performed in human or murine T cell media (without addition of IL-2)."}, "[2]": {"test_system": "malignant melanoma xenograft model", "conditions": "oral dosing; cited from earlier work"}, "B16F10 tumors": {"test_system": "B16F10 tumors", "experiment": "B16F10 melanoma tumor model", "method": "B16F10 or MC38 tumor cells (2×10^5) were injected subcutaneously in 50 μL of PBS into syngeneic C57BL/6J mice. […] Mice receiving an isotype control mAb (Bio X Cell, clone HRPN #BE0088) at the same dose in PBS were used as controls.\nFor checkpoint blockade experiments, tumor-bearing mice were administered with anti-CTLA4 mAb (clone 9H10, #BP0131, 100 μg/injection) or corresponding isotype control Ab (polyclonal Syrian hamster IgG, 100 μg/mouse). Alternatively, mice received anti-PD1 (clone 29F.1A12, #BE0273, 200 m/injection) or rat IgG2a isotype control Ab, anti-trinitrophenol (Clone: 2A3, 200 μg/injection) starting on day 7 post tumor inoculation and then every 3rd day."}, "[3]": {"experiment": "Toxicity study in C57Bl/6 mice", "conditions": "150 mg/kg twice daily, oral gavage, 14 days, versus solvent control", "method": "Sex and age matched C57Bl/6 mice were randomized into two groups treated twice daily with either CARM1 inhibitor (150 mg/kg) or vehicle via oral gavage for 14 days. Major organs including heart, spleen, kidney, liver, lung and small intestine were harvested for pathological assessment. […] Scale bar=50 μM."}, "[4]": {"test_system": "CARM1 activity in tumor cells", "experiment": "CARM1 activity in tumor cells (me2BAF155 western blot)", "format": "cell-based, human", "conditions": "sub-micromolar levels", "protocol": "BAF155 is a well-validated target of CARM1. […] Western blots were probed with Abs specific for di-methylated BAF155 protein (me2BAF155), total BAF155 protein and β-actin (loading control).\nWhole cell extracts were prepared by lysis and sonication of cells in RIPA buffer [20 mM Tris-HCl (pH 7.5), 150 mM NaCl, 1 mM EDTA, 1 mM EGTA, 1% NP-40, 1% sodium deoxycholate, 2.5 mM sodium pyrophosphate, 1 mM β-glycerophosphate, 1 mM Na3VO4, 1 μg/ml leupeptin] supplemented with Halt Protease and Phosphatase Inhibitor Cocktail (ThermoFisher). Protein concentrations were determined using a Bradford Protein Assay (Bio-Rad). Protein samples (20 […]g) were resolved by SDS-PAGE using 4-12% NuPAGE Novex Bis-Tris mini gels (ThermoFisher) and transferred onto a PVDF membrane (Bio-Rad). Blots were blocked in 5% Blocker powder (Bio-Rad), 0.2% Tween in PBS and then incubated overnight with primary antibodies. Following incubation with secondary detection reagents and subsequent washing, blots were incubated in Western Lightening Plus-ECL substrate (PerkinElmer). Luminescence was captured using a ChemiDoc MP system (Bio-Rad Laboratories)."}, "[5]": {"test_system": "malignant melanoma cell lines", "conditions": "cited from earlier work"}, "RPMI-8226": {"test_system": "RPMI-8226", "conditions": "immunodeficient mouse model; cited from earlier work"}, "[6]": {"conditions": "150 mg/kg b.i.d. orally days 7-21, in combination with CTLA-4 mAb"}}}
{"smiles": "CNC[C@@H](O)COc1ccc(Cl)c(-c2nc(-c3c(C)noc3C)c(C)c(N3CC4(CCN(C(=O)OC)CC4)C3)n2)c1", "note": "(stereo in doubt) [EZM2302]", "values": [{"measurement": "sensitization of tumor cells to CD8 T cells", "setting": "[1]", "result": "sensitized them to CD8 T cells"}, {"measurement": "CD8 T cell-mediated cytotoxicity", "setting": "BT549 TNBC cells", "result": "enhanced CD8 T cell-mediated cytotoxicity"}, {"measurement": "anti-tumor activity", "setting": "[2]", "result": "anti-tumor activity"}, {"measurement": "in vivo CARM1 inhibition", "setting": "[2]", "result": "dose-dependent in vivo CARM1 inhibition"}, {"measurement": "sensitization of tumors to checkpoint blockade", "setting": "B16F10 tumors; [6]", "result": "sensitized B16F10 melanomas to checkpoint blockade with a CTLA-4 mAb"}, {"measurement": "survival", "setting": "B16F10 tumors; [6]", "result": "significant survival benefit"}, {"measurement": "B16F10 tumor growth", "setting": "B16F10 tumors; oral, 150 mg/kg/day, B16F10 tumor bearing mice", "result": "significantly suppresses B16F10 tumor growth"}, {"measurement": "histological changes in major organs", "setting": "[3]", "result": "no histological changes"}, {"measurement": "weight loss", "setting": "[3]", "result": "no histological changes was observed in a comprehensive analysis of major organs or weight loss"}, {"measurement": "suppression of CARM1 activity in tumor cells", "setting": "[4]", "result": "suppress CARM1 activity"}, {"measurement": "cell stasis, IC50", "setting": "[5]", "result": "nanomolar range"}, {"measurement": "inhibition of PABP1 and SMB methylation, IC50", "setting": "[5]", "result": "nanomolar range"}, {"measurement": "in vivo growth of RPMI-8226", "setting": "RPMI-8226", "result": "moderately slow the in vivo growth"}]}
